Data: US20240299408A1, “METHODS OF TREATING 4-REPEAT TAUOPATHIES” (Woolsey Pharmaceuticals, Inc., priority 2020, published 2024)
Counter-ions that a name gives are not always drawn.

What was measured:
[1] = system: subjects with probable or possible PSP; test: treatment of probable or possible PSP subjects with fasudil, assessments at six months and one year versus baseline and historical controls; format: in vivo, human
PSP patients = conditions: cited from earlier work; for effect or benefit in clinical trial in PSP: PSP patients (riluzole: PSP and MSA)
[2] = in vivo, 1-hydroxy metabolite; cited from earlier work

## O=S(=O)(c1cccc2cnccc12)N1CCCNCC1 [fasudil, Hexahydro-1-(5-isoquinolinesulfonyl)-1H-1,4-diazepine monohydrochloride hemihydrate]
[1]; fasudil 180 mg/day
  oculomotor and sleep parameters: improve
[1]; fasudil 180 mg/day (60 mg tid), average is closer to 10
  PSP-RS increase over a year: ≤ 5 point

## CC[C@H](C)[C@H](NC(=O)[C@H](CO)NC(=O)[C@@H](NC(=O)[C@@H]1CCCN1C(=O)[C@H](C)NC(=O)[C@@H](N)CC(N)=O)C(C)C)C(=O)N1CCC[C@H]1C(=O)N[C@@H](CCC(N)=O)C(=O)O [Davunetide]
PSP patients
  effect or benefit in clinical trial in PSP: not shown not to be effective

## O=c1sn(-c2cccc3ccccc23)c(=O)n1Cc1ccccc1 [tideglusib]
PSP patients
  effect or benefit in clinical trial in PSP: failed to show benefit

## O=C(Oc1ccccc1C(=O)O)c1ccccc1O [Salsalate]
PSP patients
  effect or benefit in clinical trial in PSP: failed

## C=CC1O[C@H]2C[C@H]3OC[C@@]3(OC(C)=O)[C@H]3[C@H](OC(=O)c4ccccc4)[C@]4(O)C[C@H](OC(=O)[C@H](O)[C@H](CC(C)C)NC(=O)OC(C)(C)C)C(C)=C([C@H](OC(C)=O)[C@H](O1)[C@]23C)C4(C)C (stereo partly drawn) [TPI 287]
PSP patients
  effect or benefit in clinical trial in PSP: failed to show any effect

## Nc1nc2ccc(OC(F)(F)F)cc2s1 [riluzole]
PSP patients
  effect or benefit in clinical trial in PSP: failed to demonstrate effects

## [Li] [lithium]
PSP patients; open-label trial in PSP
  tolerability in open-label trial in PSP: terminated due to poor tolerability

## COC1=C(OC)C(=O)C(C/C=C(\C)CC/C=C(\C)CC/C=C(\C)CC/C=C(\C)CC/C=C(\C)CC/C=C(\C)CC/C=C(\C)CC/C=C(\C)CC/C=C(\C)CCC=C(C)C)=C(C)C1=O [coenzyme Q10]
PSP patients
  effect or benefit in clinical trial in PSP: failed to provide benefit

## O=S(=O)(c1cccc2c(O)nccc12)N1CCCNCC1 [M3]
[2]
  half-life: about 8 hours

B1: ABBV-8E12: humanized anti-tau monoclonal antibody (antibody, chains of the INN, looked up, V domains shown)
VH: EVKVVESGGGLVQPGGSMKLSCVVSGFTFSNYWVNWVRQAPGKGLEWVAQIRLKSDNYATHYEESVKGRFTISRDDSKSSVYLQMNNLRAEDSGIYYCTNWEDYWGQGTTVTVSS
VL: DIVLTQSPDSLAVSLGERATISCRASQSVSTSRYSYIHWYQQKPGQPPKLLIKYASNLESGVPSRFSGSGSGTDFTLNIHPLEPEDFATYYCHHSWEIPLTFGQGTKLEIK
PSP patients
  effect or benefit in clinical trial in PSP: failed to demonstrate an effect

B2: Gosuranemab: humanized monoclonal antibody that targets N-terminal tau (antibody, chains of the INN, looked up, V domains shown)
VH: EVHLVESGGALVKPGGSLRLSCAASGFSFSKYGMSWVRQAPGKGLEWVATISSSGSRTYYPDSVKGRFTISRDNAKNTLYLQMNSLRAEDTAMYYCSISWDGAMDYWGQGTTVTVSS
VL: DVVMTQSPLSLPVTLGQPASISCKSSQSIVHSNGNTYLEWYLQKPGQSPQLLVYKVSNRFSGVPDRFSGSGSGTDFTLKISRVEAEDVGTYYCFQGSLVPWAFGGGTKVEIK
PSP patients
  effect or benefit in clinical trial in PSP: no effect
